Data from patent US5859032A, “Pyridine derivative, anti-ulcer drug, and antibacterial drug” (priority 1996, dated 1999).

Legend:
[1] = MTT: Cell Damaging and Protecting Effect Test; assay type: cell-based, Japanese White rabbit; conditions: rabbit, gastric mucosa cells, 10^-4 M, 37° C., smaller value is better, read-out: MTT: cell damaging rate
Description: MTT: Cell Damaging and Protecting Effect Test
It is confirmed that there is no toxicity in cell level. Those having a toxicity in cell level are inappropriate as an anti-ulcer drug.
A male Japanese White rabbit (2.5 to 3 kg) was anesthetized to death by Nembutal™ and, immediately thereafter, its stomach was removed. The greater curvature of the stomach was incised so as to remove the stomach contents therefrom. After the mucosal surface was washed with HBSS (Hanks' Balanced Salt Solution), the stomach in ice-cooled HBSS was transferred to a laboratory. Then, after the pyloric antrum was removed, the gastric corpus mucosa was separated by a spatula and then minced into 2 to 3 mm^3 pieces in BME (Basal Medium Eagle). Thereafter, these pieces were shaken at 120 to 130 cycles/minute for 15 minutes at 37° C. in BME 60 ml containing 280 U/ml of dispase and 30 to 50 U/ml of collagenase. Here, the concentration of collagenase was appropriately changed for each lot in view of the state of cells. The pieces were washed twice with EBSS (Earle's Balanced Salt Solution) containing 1 mM of EDTA and then shaken in MEM (Minimum Essential Medium) containing 1 mM of EDTA at 37° C. for 5 minutes. Subsequently, they were shaken in the dispase and collagenase having the same concentrations as those mentioned above for 15 minutes so as to remove the supernatant and then further shaken at 37° C. for 50 to 60 minutes at 120 to 130 cycles/minute. Then, after being washed twice with HBSS, Ham F12 containing 2% of Ultrocer GT™ was used to attain the concentration of 1×10^6 cells/ml. Thus formed suspension was dispensed in each well of a 96-well plate by 200 μl. The plate was incubated in the atmosphere composed of 5% CO2 and 95% air at 37° C. for three days so as to attain a confluent state and then subjected to MTT assay.
The sample compound was dissolved in DMSO so as to attain a concentration of 10^-2 M and then diluted with HBSS containing 2% of Ultrocer G™ so as to attain a final concentration of 10^-4 M. To each group, which 8 wells were used for, 10 μl of MTT reagent was added immediately after 100 μl of the medium in each well was exchanged for same volume of the resulting solution of the sample compound. After being incubated in an atmosphere composed of 5% CO2 and 95% air at 37° C. for 4 hours, thus formed solution was centrifuged and then its supernatant was discarded. Subsequently, 100 μl of 100% ethanol was added to the residue so as to dissolve MTT formazan. Then, the absorbance (OD: 570 to 630) was measured by a microplate reader. This method utilizes a phenomenon in which MTT is changed to MTT formazan only by mitochondria of living cells so as to change color.
The cell damaging or cell protecting effect of the sample compound at the final concentration of 10^-4 M was expressed as cell damaging rate (%) as follows:
cell damaging rate (%)=(1-(absorbance in sample group/absorbance in control
Accordingly, the smaller value is better in the cell damaging rate.

[2] = system: isolated gastric fundic gland; assay: CAP: Acid Secretion Inhibition Test In Vitro ([14C]-aminopyrine uptake test); assay type: cell-based, Japanese White rabbit; conditions: 10^-5 M, histamine 10^-5 M, 37° C.; for inhibition at 10 µM: Oryctolagus cuniculus, 40 min, read-out: CAP: acid secretion inhibitory rate
Method: CAP: Acid Secretion Inhibition Test In Vitro
The acid secretion inhibitory activity in a cell level is studied. It can also be used for studying the mechanism of the effect. […]
ii-a) Preparation of isolated gastric fundus gland suspension
First, an isolated gastric fundic gland sample was prepared. Namely, a male Japanese White rabbit (2.5 to 3 kg) was anesthetized to death with Nembutal™ and then the abdomen was incised. Immediately thereafter, the stomach was removed and, after its pyloric and cardiac antrum were severed, incised along its greater curvature into two sheets. The gastric contents adhering to the mucosal surface was washed out with ice-cooled PBS (-) and then carefully washed therein. The gastric wall was spread on a cork board with its mucosal surface facing up and the feed and mucus thereon were completely removed with sterile gauze. The mucosa was separated therefrom by a spatula and then collected in ice-cooled PBS (-). After being washed twice with PBS (-), the mucosa was minced into 2-3 mm^3 pieces by scissors. These pieces were further washed twice with a nutrient solution. The nutrient solution comprises 132.4 mM of NaCl, 5.4 mM of KCl, 5 mM of Na2 HPO4. 12H2 O, 1 mM of NaH2 PO4. 2H2 O, 1.2 mM of MgSO4, 1 mM of CaCl 2, 25 mM of HEPES, 2 mg/ml of glucose, and 1 mg/ml of BSA. Into 70 ml of the nutrient solution containing 1 mg/ml of collagenase, minced mucosal pieces were dispersed and intensely stirred in a conical flask with a stirrer at 37° C. for 40 to 60 minutes. During this period, 100% O2 was sprayed on the nutrient solution surface and the pH was appropriately measured such that it was immediately adjusted to pH 7.4, when the value was therebelow, with a base. The nutrient solution was added to the reaction solution so as to attain the total amount of about 200 ml. After being filtered through a mesh, the suspension was divisionally introduced into 50 ml centrifuge tubes and left for 15 minutes such that gastric fundic gland was deposited. The supernatant was repeatedly removed by an aspirator, dispersed in the nutrient solution, and then left such that the gastric fundic gland was washed three times. At this time, without using a pipette, the suspension was alternately introduced into two centrifuge tubes so as to effect dispersion. The number of cells was counted under microscope and adjusted to 1.6×10^6 cells/ml. […]
ii-b) [^14 C]-aminopyrine uptake test
Then, [^14 C]-aminopyrine uptake test was performed. After an Eppendorf tube was weighed, 10 μl (final concentration: 10^-5 M) of histamine dissolved in the above-mentioned nutrient solution, 10 μl (final concentration: 10^-5 M) of the test compound dissolved in DMSO, and 10 μl (final concentration: 0.05 μCi/ml) of [^14 C]-aminopyrine diluted with the nutrient solution were introduced therein and then 970 μl of the isolated gastric fundic gland suspension prepared above was added thereto. Subsequently, this mixture was shaken at 37° C. for 40 minutes at 125 cycles/minute. After being centrifuged for 30 minutes, 200 μl of its supernatant was collected into a mini-vial, while the rest was removed by an aspirator. The gland pellet was completely dried as the tube with its lid being opened was kept for one night in a drying oven at 80° C. and then the lid was closed and the weight was determined at room temperature. Then 100 μl of 1N KOH was added thereto and the tube with its lid being closed was treated at 60° C. for 1 to 2 hours so as to dissolve the pellet. Then, the contents thereof were transferred to a mini-vial. Into the mini-vial containing the supernatant or gland pellet, 4 ml of Atomlite™ was added and then the radioactivity was measured by a liquid scintillation counter. Here, after the radioactivity of the gland pellet was corrected by using a sample in which 20 mM of NaSCN was added so as to cancel the hydrogen ion concentration gradient, the integration ratio of aminopyrine specifically trapped by the gland pellet was calculated. […]

[3] = system: stress ulcer formation (rats); assay: WIS: Restraint and Water Immersion Stress-Induced Ulcer Inhibition Test; assay type: in vivo, rat (male Crj:SD or Slc:SD); conditions: rat, 100 mg/kg, oral, 7 hours water immersion stress
Method: WIS: Restraint and Water Immersion Stress-Induced Ulcer Inhibition Test
The degree of inhibition of the stress ulcer formation is tested.
Male Crj:SD or Slc:SD rats (6 to 7-week-old) were fasted overnight, but allowed free access to water. Each group has 5 to 8 of these rats. […] To a control group, the vehicle was administered. 10 minutes later, the rats were placed in a stress cage and immersed to the level of xipfoid process in a water bath (21° C.) for 7 hours. At the end of the stress, the rats were sacrificed by inhalation of ether or carbon dioxide. Then, the stomach of each was removed, inflated by injecting 10 ml of 5% formalin neutral buffer solution, and immersed in 1% formalin neutral buffer solution for 30 minutes or more to be fixed. The stomach was incised along the greater curvature and then the length of each erosion in the glandular portion was determined under dissecting microscope. The sum of the length of erosions per stomach was defined as ulcer index (UI).
The effect obtained when 100 mg/kg of the sample compound had been administered was expressed as ulcer formation inhibitory rate (%) as follows:
ulcer formation inhibitory rate (%)=(1-(UI in sample group/UI in control

[4] = system: gastric mucosa; assay: PD: Gastric Mucosal Integrity Test; assay type: in vivo, rat (male CDj:SD); parameters: key: 5: Same as the control with no recognizable damage at all.; 4: Though a slight PD-decreasing tendency suggesting a slight possibility of mucosal damage is found, there is no problem.; 3: Though a weak decrease in PD and a possibility of a weak mucosal damage is recognized, there is no substantial problem.; 2: Medium degree of decrease in PD is found and a mucosal damage is recognized.; 1: Heavy degree of decrease in PD is found and a remarkable mucosal damage is recognized; conditions: rat, 100 mg/kg into chamber, 60 minutes
Method: PD: Gastric Mucosal Integrity Test
In this case, since the sample compound has a necrotizing effect, it is inappropriate as an anti-ulcer medicament.
Therefore, the gastric mucosal potential difference (PD), which reflects the integrity of the gastric mucosa, is measured so as to confirm that the sample compound has no damaging effect on gastric mucosa, which is toxicity at gastric mucosal level.
Male CDj:SD rats (7 to 8-week-old) were fasted overnight, but allowed free access to water, and then, under urethane anesthesia (1.25 g/kg, i.p.), fixed to a cork board on its back. The abdomen of each rat was incised, and a small incision was made in the forestomach. Then, the inside of the stomach was washed with physiological saline heated at 37° C. From the forestomach, along the greater curvature thereof, the stomach was incised without damaging blood vessels. After the height of the cork board was adjusted on a jack, the stomach was mounted on ex vivo chamber. The area of the gastric mucosa exposed to the inside of this chamber was 2.5 cm^2. The inside of the chamber was perfused with physiological saline warmed at 37° C. by micro tube pump. By using an agar bridge containing 3M KCl, the potential difference between the chamber and the abdominal cavity was measured by a PD meter. Here, the rectal temperature was measured to control the body temperature during the experiment. […] To a control, the vehicle was administered.
The change in PD during 60 minutes after the administration of 100 mg/kg of the sample compound was collectively studied and, with reference to the positive control, classified into 5 levels as follows:
5: Same as the control with no recognizable damage at all.
3: Though a weak decrease in PD and a possibility of a weak mucosal damage is recognized, there is no substantial problem.
2: Medium degree of decrease in PD is found and a mucosal damage is recognized.
1: Heavy degree of decrease in PD is found and a remarkable mucosal damage is recognized.

[5] = system: gastric acid secretion (pylorus-ligated, histamine-stimulated rats); assay: VOL, TAO: Acid Secretion Inhibition Test In Vivo; parameters: species or system rat (male Crj:Donryu); conditions: rat, 100 mg/kg, oral; histamine 30 mg/kg s.c.
Method: VOL, TAO: Acid Secretion Inhibition Test In Vivo
Inhibitory effect on acid secretion in vivo is confirmed.
Male Crj:Donryu rats (7-week-old) were fasted overnight but allowed free access to water. In each group, 8 to 10 of these rats were used under urethane anesthesia (1.25 g/kg). […] 30 minutes later, the abdomen of each was incised and the pylorus was ligated. 30 minutes after the ligation, 30 mg/kg of histamine dissolved in physiological saline was subcutaneously administered and, 3 hours thereafter, the rat was sacrificed with carbon dioxide. Immediately thereafter, each stomach was removed and the gastric contents were collected and each volume was determined. The total acid output was determined by titration of the gastric juice with 0.1N NaOH.
With respect to the gastric juice volume (VOL) and the total acid output (TAO), the effects obtained when 100 mg/kg of the sample compound had been administered were expressed as their respective inhibitory rates (%) as follows:
each inhibitory rate (%)=(1-(value in sample group/value in control

[6] = system: mice; conditions: mouse, in vivo
Method: AT: Single Dose Toxicity Pretest
Male Slc:ICR mice (5-week-old) were used. Each group has 3 to 5 mice and each mouse was fasted, but allowed free access to water, for 4 to 5 hours from 9 a.m. in the test day. Then, 2,000 mg/10 ml/kg of the sample compound dissolved or suspended in an aqueous solution of 0.5% sodium carboxymethyl cellulose was orally administered thereto. To a control, only the vehicle was administered. […] The body weight was measured before and after the fasting as well as at the same time everyday. The dead animals were immediately subjected to autopsy and their organs were observed microscopically. Also, the living animals were sacrificed with ether or carbon dioxide one week after the administration and then their organs were observed microscopically.
The toxicity at the single dose of 2,000 mg/kg of the sample compound was expressed as being classified into 5 levels.
5: Mortality rate is 0%; no toxicity is found at all both in behavior and organs.
4: Mortality rate is 0%; while no toxicity is found in organs, slight toxicity is observed in behavior and body weight increase.
3: While there is a dead animal (though not all the animals are dead), no toxicity is found in organs.
2: Regardless of whether there is a dead animal or not, toxicity is found in organs.
1: All the animals are dead.

SMILES | cytotoxicity at 4 h, 100 µM [1] [%] | inhibition at 10 µM [2] [%] | WIS: ulcer formation inhibitory rate [3] [%] | PD: change in gastric mucosal potential difference (5 levels) [4] | TAO: total acid output inhibitory rate [5] [%] | VOL: gastric juice volume inhibitory rate [5] [%] | AT: toxicity at the single dose (5 levels) [6] | CAP: acid secretion inhibitory rate ([2]; 40 minutes) [%]
CC(C)=CCC/C(C)=C/COc1ccc(OC/C=C(\C)CCC=C(C)C)c(C(=O)NCCc2ccncc2)c1 [Example 5, 4-[2-(2,5-digeranyloxybenzoylamino)ethyl]pyridine] | -17 | 99 | 35 | – | – | – | – | –
COc1ccc(NCCNC(=O)c2ccc(OC/C=C(\C)CCC=C(C)C)cc2)cn1 [Example 9, 3-[2-(4-geranyloxybenzoylamino)ethylamino]-6-methoxypyridine] | 8 | 77 | 42 | – | – | – | – | –
CC(C)=CCC/C(C)=C/COc1ccc(C(=O)NCCSc2ccc(C(F)(F)F)cn2)cc1 [Example 12, 2-[2-(4-geranyloxybenzoylamino)ethylthio]-5-trifluoromethylpyridine] | -14 | – | 37 | 5 | -10 | -5 | 5 | –
CC(C)Cc1cc(C(=O)NCCc2ccncc2)ccc1OCc1ccc(F)cc1 [Example 14, 4-[2-[4-(4-fluorobenzyloxy)-3-isobutylbenzoylamino]ethyl]pyridine] | – | 97 | 91 | – | – | – | 4 | –
CC(C)Cc1cc(C(=O)NCCc2ccncc2)ccc1OCc1ccc(F)cc1.Cl [Example 15, 4-[2-[4-(4-fluorobenzyloxy)-3-isobutylbenzoylamino]ethyl]pyridine hydrochloride] | – | – | 86 | – | – | – | – | 95.1
